Legend:
Assay type in all cases: in vivo
corn (Zea mays) = assay: Test A pre-/postemergence plant response; details: for Corn plant response rating: visual injury, 0 to 100 scale (0 no effect, 100 complete control), approx. ten days
Summary of the method: (§1)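 Pre: directed soil spray on seeded loam/sand blend. Post: same formulation (non-phytotoxic solvent + surfactant) on 2–10 cm plants, 1–2 leaf stage. Greenhouse ~10 d; visual injury score 0–100 vs untreated.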

[1] = tested on: velvetleaf (Abutilon theophrasti); assay: Test A pre-/postemergence plant response; details: for Velvetleaf plant response rating: visual injury, 0 to 100 scale (0 no effect, 100 complete control), approx. ten days
Summary of the method: as §1

[2] = tested on: giant foxtail (Setaria faberii); assay: Test A pre-/postemergence plant response; details: for Foxtail, Giant plant response rating: visual injury, 0 to 100 scale (0 no effect, 100 complete control), approx. ten days
Summary of the method: as §1

[3] = tested on: wheat (Triticum aestivum); assay: Test A pre-/postemergence plant response; details: for Wheat plant response rating: visual injury, 0 to 100 scale (0 no effect, 100 complete control), approx. ten days
Summary of the method: as §1

[4] = tested on: barnyardgrass (Echinochloa crus-galli); assay: Test A pre-/postemergence plant response; details: for Barnyardgrass plant response rating: visual injury, 0 to 100 scale (0 no effect, 100 complete control), approx. ten days
Summary of the method: as §1

[5] = tested on: morningglory (Ipomoea spp.); assay: Test A pre-/postemergence plant response; details: for Morningglory plant response rating: visual injury, 0 to 100 scale (0 no effect, 100 complete control), approx. ten days
Summary of the method: as §1

[6] = tested on: pigweed (Amaranthus retroflexus); assay: Test A pre-/postemergence plant response; details: for Pigweed plant response rating: visual injury, 0 to 100 scale (0 no effect, 100 complete control), approx. ten days
Summary of the method: as §1

[7] = tested on: large crabgrass (Digitaria sanguinalis); assay: Test A pre-/postemergence plant response; details: for Crabgrass, Large plant response rating: visual injury, 0 to 100 scale (0 no effect, 100 complete control), approx. ten days
Summary of the method: as §1

[8] = tested on: winter barley (Hordeum vulgare); assay: Test B postemergence plant response; details: Postemergence
Summary of the method: (§2)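 Visual ratings from 0 (no effect) to 100 (complete control), made against controls 13–15 days after treatment, kept in a greenhouse. Compounds were applied postemergence to potted plants at the 1- to 4-leaf stage (2–18 cm).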

[9] = tested on: chickweed (Stellaria media); assay: Test B postemergence plant response; details: Postemergence
Summary of the method: as §2

[10] = tested on: canarygrass (Phalaris minor); assay: Test B postemergence plant response; details: Postemergence
Summary of the method: as §2

[11] = tested on: windgrass (Apera spica-venti); assay: Test B postemergence plant response; details: Postemergence
Summary of the method: as §2

[12] = Postemergence, 125 g ai/ha, 0 to 100 scale where 0 is no effect and 100 is complete control
[13] = Preemergence, 125 g ai/ha, 0 to 100 scale, 0 = no effect, 100 = complete control
[14] = Preemergence, 500 g ai/ha, 0 to 100 scale, 0 = no effect, 100 = complete control
[15] = 31 g ai/ha, 0 to 100 scale (0 no effect, 100 complete control)
[16] = 62 g ai/ha, scale 0 to 100 (0 no effect, 100 complete control)
[17] = 125 g ai/ha, scale 0 to 100 (0 no effect, 100 complete control)
[18] = 250 g ai/ha, scale 0 to 100 (0 no effect, 100 complete control), 13 to 15 days

Cc1cc(-n2c(-c3cccc(F)c3)ncc(C(=O)C3=C(O)CCCC3=O)c2=O)ccc1F [Compound 191]
5: Plant response rating, Barley [8, 15]
70: Plant response rating, Morningglory [5, 14] | Plant response rating, Crabgrass, Large [7, 12] | Plant response rating, Barley [8, 18]
0: Plant response rating, Corn (corn (Zea mays); [12]) | Plant response rating, Corn (corn (Zea mays); [13]) | Plant response rating, Wheat [3, 12] | Plant response rating, Wheat [3, 13] | Plant response rating, Morningglory [5, 13]
10: Plant response rating, Barnyardgrass [4, 13]
85: Plant response rating, Canarygrass [10, 18] | Plant response rating, Windgrass [11, 16] | Plant response rating, Windgrass [11, 17]
40: Plant response rating, Foxtail, Giant [2, 13]
20: Plant response rating, Wheat [3, 14] | Plant response rating, Canarygrass [10, 15]
60: Plant response rating, Velvetleaf [1, 13] | Plant response rating, Canarygrass [10, 17]
90: Plant response rating, Foxtail, Giant [2, 14] | Plant response rating, Barnyardgrass [4, 12] | Plant response rating, Morningglory [5, 12] | Pigweed plant response rating ([6]; Postemergence, 500 g ai/ha)
100: Plant response rating, Velvetleaf [1, 12] | Velvetleaf plant response rating ([1]; Postemergence, 500 g ai/ha) | Plant response rating, Velvetleaf [1, 14] | Foxtail, Giant plant response rating ([2]; Postemergence, 500 g ai/ha) | Barnyardgrass plant response rating ([4]; Postemergence, 500 g ai/ha) | Morningglory plant response rating ([5]; Postemergence, 500 g ai/ha) | Plant response rating, Pigweed [6, 14] | Crabgrass, Large plant response rating ([7]; Postemergence, 500 g ai/ha) | Plant response rating, Crabgrass, Large [7, 14] | Plant response rating, Chickweed [9, 18] | Plant response rating, Windgrass [11, 18]
50: Corn plant response rating (corn (Zea mays); Postemergence, 500 g ai/ha) | Wheat plant response rating ([3]; Postemergence, 500 g ai/ha) | Plant response rating, Crabgrass, Large [7, 13] | Plant response rating, Barley [8, 16] | Plant response rating, Barley [8, 17] | Plant response rating, Canarygrass [10, 16]
80: Plant response rating, Foxtail, Giant [2, 12] | Plant response rating, Barnyardgrass [4, 14] | Plant response rating, Pigweed [6, 12] | Plant response rating, Pigweed [6, 13]
98: Plant response rating, Chickweed [9, 15] | Plant response rating, Chickweed [9, 16] | Plant response rating, Chickweed [9, 17]
30: Plant response rating, Corn (corn (Zea mays); [14])
55: Plant response rating, Windgrass [11, 15]

O=C1CCCC(O)=C1C(=O)c1cnc(-c2ccc(F)cc2)n(C2CCCCC2)c1=O [Compound 197]
70: Plant response rating, Crabgrass, Large [7, 12]
20: Plant response rating, Corn (corn (Zea mays); [12]) | Plant response rating, Wheat [3, 14] | Plant response rating, Pigweed [6, 13]
98: Plant response rating, Windgrass [11, 18]
50: Corn plant response rating (corn (Zea mays); Postemergence, 500 g ai/ha) | Plant response rating, Foxtail, Giant [2, 14] | Plant response rating, Windgrass [11, 16]
60: Plant response rating, Morningglory [5, 14] | Plant response rating, Crabgrass, Large [7, 14] | Plant response rating, Canarygrass [10, 18]
30: Plant response rating, Corn (corn (Zea mays); [14]) | Plant response rating, Canarygrass [10, 16]
10: Plant response rating, Barley [8, 17] | Plant response rating, Windgrass [11, 15]
80: Plant response rating, Foxtail, Giant [2, 12] | Plant response rating, Barnyardgrass [4, 12]
5: Plant response rating, Barley [8, 16] | Plant response rating, Canarygrass [10, 15]
0: Plant response rating, Corn (corn (Zea mays); [13]) | Plant response rating, Foxtail, Giant [2, 13] | Plant response rating, Wheat [3, 12] | Wheat plant response rating ([3]; Postemergence, 500 g ai/ha) | Plant response rating, Wheat [3, 13] | Plant response rating, Barnyardgrass [4, 13] | Plant response rating, Morningglory [5, 13] | Plant response rating, Crabgrass, Large [7, 13] | Plant response rating, Barley [8, 15]
90: Plant response rating, Velvetleaf [1, 14]
100: Plant response rating, Velvetleaf [1, 12] | Velvetleaf plant response rating ([1]; Postemergence, 500 g ai/ha) | Foxtail, Giant plant response rating ([2]; Postemergence, 500 g ai/ha) | Barnyardgrass plant response rating ([4]; Postemergence, 500 g ai/ha) | Plant response rating, Morningglory [5, 12] | Morningglory plant response rating ([5]; Postemergence, 500 g ai/ha) | Plant response rating, Pigweed [6, 12] | Pigweed plant response rating ([6]; Postemergence, 500 g ai/ha) | Plant response rating, Pigweed [6, 14] | Crabgrass, Large plant response rating ([7]; Postemergence, 500 g ai/ha) | Plant response rating, Chickweed [9, 15] | Plant response rating, Chickweed [9, 16] | Plant response rating, Chickweed [9, 17] | Plant response rating, Chickweed [9, 18]
40: Plant response rating, Velvetleaf [1, 13] | Plant response rating, Barnyardgrass [4, 14] | Plant response rating, Barley [8, 18] | Plant response rating, Canarygrass [10, 17]
